Measured values from ChEMBL document CHEMBL3407412, “Synthesis and bioevaluation of pyrazole-benzimidazolone hybrids as novel human 4-Hydroxyphenylpyruvate dioxygenase inhibitors” (Eur J Med Chem, 2015).

Each molecule was assayed against 4-hydroxyphenylpyruvate dioxygenase (Homo sapiens, UniProt P32754) (assay: Inhibition of human recombinant His-tagged HPPD expressed in Escherichia coli BL21(DE3) by UV/visible plate reader analysis).
Chain of 4-hydroxyphenylpyruvate dioxygenase (P32754 whole entry): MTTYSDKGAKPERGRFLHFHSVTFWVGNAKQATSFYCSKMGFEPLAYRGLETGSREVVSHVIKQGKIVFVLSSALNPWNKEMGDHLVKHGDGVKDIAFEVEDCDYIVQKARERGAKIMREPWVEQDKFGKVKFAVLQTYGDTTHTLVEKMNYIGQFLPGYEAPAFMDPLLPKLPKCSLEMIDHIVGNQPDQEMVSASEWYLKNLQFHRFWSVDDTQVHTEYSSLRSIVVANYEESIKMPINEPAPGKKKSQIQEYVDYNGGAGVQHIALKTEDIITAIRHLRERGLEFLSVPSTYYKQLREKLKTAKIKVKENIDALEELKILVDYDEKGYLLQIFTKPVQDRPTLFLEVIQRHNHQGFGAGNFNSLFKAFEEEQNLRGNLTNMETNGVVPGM
In the case of `Cc1nn(C)c(O)c1C(=O)c1ccc2c(c1)n(Cc1ccccc1)c(=O)n2C`, the IC50 is reported as 670 nM.
`Cc1nn(C)c(O)c1C(=O)c1ccc2c(c1)n(CC(C)C)c(=O)n2C` gave an IC50 of 2710 nM.
Molecule `Cn1ncc(C(=O)c2ccc3c(c2)n(C(C)(C)C)c(=O)n3C)c1O` has an IC50 of 100 nM.
`Cc1ccc(-n2c(=O)n(C)c3ccc(C(=O)c4cnn(C)c4O)cc32)cc1` showed an IC50 of 250 nM.
Molecule `CCCn1c(=O)n(CC)c2cc(C(=O)c3cnn(C)c3O)ccc21` has an IC50 of 39 nM.
`CCCCn1c(=O)n(C)c2ccc(C(=O)c3cnn(C)c3O)cc21` gave an IC50 of 170 nM.
